Reference: US4377587A, “Arylamine derivatives and use thereof as microbicides” (Ciba-Geigy Corporation, priority 1980, dated 1983)
Converted amounts (≈) assume the structure as drawn.

Tests used:
[1] = test system: Phytophthora infestans; format: in vivo, Phytophthora infestans (on tomato plants); conditions: tomato, spray 0.06% active ingredient, infested after 24 hours, evaluated after 5 days at 20° C.
[2] = test system: Podosphaera leucotricha; test: Residual-protective action against Podosphaera leucotricha on apples; format: in vivo; conditions: apple seedlings, spray 0.06% of active ingredient, evaluated 12 days after infection
Method: Residual-protective action against Podosphaera leucotricha on apples
Apple seedlings in the 5-leaf stage are sprayed with a spray mixture (0.06% of active ingredient) prepared from a wettable powder formulation of the active ingredient. After 24 hours the treated plants are infected with a conidia suspension of the fungus and placed in a climatic chamber at 70% relative humidity and 20° C. Evaluation of fungus infestation is made 12 days after infection.

[3] = test system: Pythium debaryanum; test: Action on Pythium debaryanum on sugar beets, (a) after soil application; format: in vivo; conditions: sugar beet, 20 ppm of active ingredient based on volume of soil, 2-3 weeks at 20°-24° C.
Description: (§1) Action on Pythium debaryanum on sugar beets
(a) Action after soil application
The fungus is cultivated on carrot chips nutrient solution and added to a mixture of earth and sand. Flower pots are filled with the infected soil, in which sugar beet seeds are then sown. Immediately after sowing, the test preparations formulated as wettable powders are poured in the form of aqueous suspensions over the soil (20 ppm of active ingredient, based on the volume of the soil). The pots are then stood for 2-3 weeks in a greenhouse at 20°-24° C. The soil is kept uniformly moist by gently spraying it with water. The emergence of the sugar beet plants as well as the number of healthy and sick plants are ascertained in evaluating the test.

[4] = test system: Phytophthora infestans; format: in vivo, Phytophthora infestans (on tomato plants); conditions: tomato, sprayed 0.06% active ingredient 22 hours after infestation, evaluated 5 days after infestation
[5] = test system: Pythium debaryanum; test: Action on Pythium debaryanum on sugar beets, (b) after seed dressing application; format: in vivo; conditions: sugar beet, seed dressing 0.06%, 2-3 weeks at c. 20° C.
Method: as §1
(b) Action after seed dressing application
The fungus is cultivated on carrot chip nutrient solution and added to a mixture of earth and sand. Flower pots are filled with the infected soil and sugar beet seeds which have been treated with the test preparations formulated as seed dressing powders are sown therein (0.06% of one of the compounds of Tables 1 and 2). The pots are then stood in a greenhouse for 2-3 weeks at c. 20° C. The soil is kept uniformly moist by gently spraying it with water. The emergence of the sugar beet plants is ascertained in evaluating the test.

[6] = test system: Erysiphe graminis; test: Action against Erysiphe graminis on barley, residual protective action; format: in vivo, Erysiphe graminis (on barley plants); conditions: 0.02% active ingredient sprayed, infected after 3-4 hours, evaluated after 10 days
Method: Action against Erysiphe graminis on barley
Residual protective action
Barley plants about 8 cm in height are sprayed with a spray mixture (0.02% of active ingredient) prepared from the active ingredient formulated as a wettable powder. The treated plants are dusted with conidia of the fungus after 3-4 hours. The infected barley plants are then stood in a greenhouse at about 22° C. The extent of the fungus infection is evaluated after 10 days.

[7] = Water solubility; format: physicochemical; conditions: 25° C.
Description: Determination of physico-chemical data
(a) Reduced water solubility

SMILES: COCC(=O)N(c1c(N)cccc1Cl)C(C)C(=O)OC (centres unmarked) [Compound 6]
- fungus attack compared with untreated control plants (100% attack), residual-protective [1]: less than 10%
- fungus attack compared with untreated and infected control seedlings (100% attack) [2]: less than 10%
- emergent plants (fully effective against Pythium pathogens), soil application [3]: over 90%
- fungus attack compared with untreated and infected control plants (100% attack), residual curative [4]: less than 10%
- emergent plants (fully effective against Pythium pathogens), seed dressing application [5]: over 90%

SMILES: COC(=O)C(C)N(C(=O)CS(C)(=O)=O)c1c(C)ccc(N)c1C (centres unmarked) [Compound 14]
- fungus attack compared with untreated control plants (100% attack), residual-protective [1]: less than 10%

SMILES: COCC(=O)N(c1c(C)cc(C)c([N+](=O)[O-])c1C)C(C)C(=O)OC (centres unmarked) [Compound 29]
- fungus attack compared with untreated control plants (100% attack), residual-protective [1]: less than 10%
- emergent plants (fully effective against Pythium pathogens), soil application [3]: over 90%
- fungus attack compared with untreated and infected control plants (100% attack), residual curative [4]: less than 10%
- emergent plants (fully effective against Pythium pathogens), seed dressing application [5]: over 90%

SMILES: COC(=O)C(C)N(C(=O)C1CCCO1)c1c(C)ccc([N+](=O)[O-])c1C (centres unmarked) [Compound 35]
- fungus attack compared with untreated control plants (100% attack), residual-protective [1]: less than 10%

SMILES: COC(=O)C(C)N(C(=O)CS(C)(=O)=O)c1c(C)ccc([N+](=O)[O-])c1C (centres unmarked) [Compound 38]
- fungus attack compared with untreated control plants (100% attack), residual-protective [1]: less than 10%
- fungus attack compared with control plants (100% attack) [6]: less than 10%

SMILES: COCC(=O)N(c1c(Cl)cccc1[N+](=O)[O-])C(C)C(=O)OC (centres unmarked) [Compound 57]
- fungus attack compared with untreated control plants (100% attack), residual-protective [1]: less than 10%

SMILES: COCC(=O)N(c1c([N+](=O)[O-])ccc(C)c1C)C(C)C(=O)OC (centres unmarked) [Compound 59, N-(1'methoxycarbonylethyl)-N-methoxyacetyl-2,3-dimethyl-6-nitroaniline]
- fungus attack compared with untreated control plants (100% attack), residual-protective [1]: less than 10%
- emergent plants (fully effective against Pythium pathogens), soil application [3]: over 90%
- fungus attack compared with untreated and infected control plants (100% attack), residual curative [4]: less than 10%
- emergent plants (fully effective against Pythium pathogens), seed dressing application [5]: over 90%

SMILES: CCOCC(=O)N(c1c(C)ccc([N+](=O)[O-])c1C)C(C)C(=O)OC(C)C (centres unmarked) [Compound 73]
- fungus attack compared with untreated control plants (100% attack), residual-protective [1]: less than 10%
- fungus attack compared with untreated and infected control seedlings (100% attack) [2]: less than 10%
- emergent plants (fully effective against Pythium pathogens), soil application [3]: over 90%
- emergent plants (fully effective against Pythium pathogens), seed dressing application [5]: over 90%

SMILES: CCOC(=O)C(C)N(C(=O)COC)c1c(C)ccc([N+](=O)[O-])c1C (centres unmarked) [Compound 74]
- fungus attack compared with untreated control plants (100% attack), residual-protective [1]: less than 10%
- fungus attack compared with untreated and infected control plants (100% attack), residual curative [4]: less than 10%

SMILES: COCC(=O)N(c1c(C)cc([N+](=O)[O-])c(C)c1C)C(C)C(=O)OC (centres unmarked) [Compound 78]
- fungus attack compared with untreated control plants (100% attack), residual-protective [1]: less than 10%

SMILES: CCOCC(=O)N(c1c(Cl)ccc(N)c1C)C(C)C(=O)OC (centres unmarked) [Compound 88]
- fungus attack compared with untreated control plants (100% attack), residual-protective [1]: less than 10%

SMILES: CCOCC(=O)N(c1cccc([N+](=O)[O-])c1C)C(C)C(=O)OC (centres unmarked) [Compound 104]
- fungus attack compared with control plants (100% attack) [6]: less than 10%

SMILES: CCOCC(=O)N(c1c(Cl)ccc([N+](=O)[O-])c1C)C(C)C(=O)OC (centres unmarked) [Compound 107]
- emergent plants (fully effective against Pythium pathogens), soil application [3]: over 90%
- fungus attack compared with untreated and infected control plants (100% attack), residual curative [4]: less than 10%
- emergent plants (fully effective against Pythium pathogens), seed dressing application [5]: over 90%
- fungus attack compared with control plants (100% attack) [6]: less than 10%

SMILES: C=CCN(C(=O)COC)c1c(C)ccc([N+](=O)[O-])c1C [Compound 111]
- fungus attack compared with untreated control plants (100% attack), residual-protective [1]: less than 10%

SMILES: C#CCN(C(=O)COC)c1c(C)ccc([N+](=O)[O-])c1C [Compound 117]
- fungus attack compared with untreated control plants (100% attack), residual-protective [1]: less than 10%

SMILES: C#CCN(C(=O)COCC)c1c(C)ccc([N+](=O)[O-])c1C [Compound 122]
- fungus attack compared with untreated control plants (100% attack), residual-protective [1]: less than 10%

SMILES: COC(=O)C(C)N(C(=O)C1CC1)c1ccc([N+](=O)[O-])cc1Cl (centres unmarked) [Compound 138]
- fungus attack compared with untreated control plants (100% attack), residual-protective [1]: less than 10%

SMILES: COC(=O)C(C)N(C(=O)C1CC1)c1ccc(N)cc1Cl (centres unmarked) [Compound 139]
- fungus attack compared with untreated control plants (100% attack), residual-protective [1]: less than 10%

SMILES: COCC(=O)N(c1c(C)c(C)c([N+](=O)[O-])c(C)c1C)C(C)C(=O)OC (centres unmarked) [Compound 141]
- fungus attack compared with untreated control plants (100% attack), residual-protective [1]: less than 10%
- fungus attack compared with untreated and infected control plants (100% attack), residual curative [4]: less than 10%

SMILES: CCOCC(=O)N(c1c(C)c(C)c([N+](=O)[O-])c(C)c1C)C(C)C(=O)OC (centres unmarked) [Compound 142]
- fungus attack compared with untreated control plants (100% attack), residual-protective [1]: less than 10%
- fungus attack compared with untreated and infected control plants (100% attack), residual curative [4]: less than 10%
- fungus attack compared with control plants (100% attack) [6]: less than 10%

SMILES: COC(=O)C(C)N(C(=O)C1CCCO1)c1c(C)c(C)c([N+](=O)[O-])c(C)c1C (centres unmarked) [Compound 144]
- fungus attack compared with untreated control plants (100% attack), residual-protective [1]: less than 10%

SMILES: COCC(=O)N(c1c(C)c(C)c(N)c(C)c1C)C(C)C(=O)OC (centres unmarked) [Compound 158]
- fungus attack compared with untreated control plants (100% attack), residual-protective [1]: less than 10%
- emergent plants (fully effective against Pythium pathogens), soil application [3]: over 90%
- emergent plants (fully effective against Pythium pathogens), seed dressing application [5]: over 90%

SMILES: CCOCC(=O)N(c1c(C)c(C)c(N)c(C)c1C)C(C)C(=O)OC (centres unmarked) [Compound 159]
- fungus attack compared with untreated control plants (100% attack), residual-protective [1]: less than 10%

SMILES: COC(=O)C(C)N(C(=O)COC(C)C)c1c(C)c(C)c(N)c(C)c1C (centres unmarked) [Compound 160]
- emergent plants (fully effective against Pythium pathogens), soil application [3]: over 90%
- emergent plants (fully effective against Pythium pathogens), seed dressing application [5]: over 90%

SMILES: COC(=O)C(C)N(C(=O)C1CCCO1)c1c(C)c(C)c(N)c(C)c1C (centres unmarked) [Compound 161]
- fungus attack compared with untreated control plants (100% attack), residual-protective [1]: less than 10%
- fungus attack compared with untreated and infected control plants (100% attack), residual curative [4]: less than 10%

SMILES: COCC(=O)N(c1c([N+](=O)[O-])ccc2ccccc12)C(C)C(=O)OC (centres unmarked) [Compound 400, N-(1'methoxycarbonylethyl)-N-methoxyacetyl-2-nitronaphthylamine]
- fungus attack compared with untreated control plants (100% attack), residual-protective [1]: less than 10%
- emergent plants (fully effective against Pythium pathogens), soil application [3]: over 90%
- fungus attack compared with untreated and infected control plants (100% attack), residual curative [4]: less than 10%
- emergent plants (fully effective against Pythium pathogens), seed dressing application [5]: over 90%

SMILES: COCC(=O)N(c1c(C)cc([N+](=O)[O-])c2ccccc12)C(C)C(=O)OC (centres unmarked) [Compound 606]
- fungus attack compared with untreated control plants (100% attack), residual-protective [1]: less than 10%
- fungus attack compared with untreated and infected control seedlings (100% attack) [2]: less than 10%
- emergent plants (fully effective against Pythium pathogens), soil application [3]: over 90%
- fungus attack compared with untreated and infected control plants (100% attack), residual curative [4]: less than 10%
- emergent plants (fully effective against Pythium pathogens), seed dressing application [5]: over 90%

SMILES: COC(=O)C(C)N(C(=O)C1CCCO1)c1c(C)cc([N+](=O)[O-])c2ccccc12 (centres unmarked) [Compound 607]
- fungus attack compared with untreated control plants (100% attack), residual-protective [1]: less than 10%
- emergent plants (fully effective against Pythium pathogens), soil application [3]: over 90%
- emergent plants (fully effective against Pythium pathogens), seed dressing application [5]: over 90%

SMILES: COCC(=O)N(c1ccc([N+](=O)[O-])c2ccccc12)C(C)C(=O)OC (centres unmarked) [Compound 611]
- fungus attack compared with untreated control plants (100% attack), residual-protective [1]: less than 10%
- fungus attack compared with untreated and infected control plants (100% attack), residual curative [4]: less than 10%

SMILES: COCC(=O)N(c1c(C)cccc1C)[C@@H](C)C(=O)OC [Metalaxyl, N-(2,6-dimethylphenyl)-N-(2'-methoxyacetyl)alanine methyl ester, reference compound]
- solubility [7]: 800 µg/mL (≈ 2860 µM)
